Literature values as cited in article PMC6370995, “Phase I study of PF‐04895162, a Kv7 channel opener, reveals unexpected hepatotoxicity in healthy subjects, but not rats or monkeys: clinical evidence of disrupted bile acid homeostasis” (Pharmacology Research & Perspectives, 2019).

How the values were obtained:
patients = test system: patients; parameters: method as in PMID 27178047; conditions: 50 mg once daily, Phase 3 clinical study; cited from earlier work
BSEP = test system: BSEP; parameters: method as in PMID 11309550; conditions: cited from earlier work

| SMILES | clinical liver finding (patients) | BSEP inhibition potency (BSEP) |
| --- | --- | --- |
| Cc1cc(OCCCS(C)(=O)=O)cc(C)c1-c1cccc(COc2ccc3c(c2)OC[C@H]3CC(=O)O)c1 [TAK‐875] | clinical hepatotoxicity in a small number of patients | – |
| COc1ccccc1Oc1c(NS(=O)(=O)c2ccc(C(C)(C)C)cc2)nc(-c2ncccn2)nc1OCCO [bosentan] | – | ~ 12 μmol/L |
